Laboratory results: patent US10206399B2, “Herbicidal composition comprising uracil compound as active ingredient” (Dongbu Farm Hannong Co., Ltd., priority 2012, dated 2019)
Where two headings read alike, the source gives them in different places.

Legend:
Monochoria vaginalis = assay: Paddy field farming herbicidal composition test, plant mortality; format: in vivo
Source text: (§1) X is % damage by uracil compound (a) of formula 1 at the rate of application of p kg/ha; Y is % damage by conventional herbicidal compound (b) at the rate of application of q kg/ha; and E is the expected damage caused by compounds (a) and (b) at a rate of application of p and q kg/ha.
(§2) The expected activity for a given combination of two herbicides can be calculated using equation 1 above.

Echinochloa crus [1] = assay: as above; format: in vivo
Source text: as §1, §2

Echinochloa crus [2] = conditions: Echinochloa crus
Source text: as §1, §2

Digitaria sanguinalis [3] = conditions: Digitaria sanguinalis
Source text: as §1, §2

Abutilon theophrasti [4] = conditions: 20 g/ha; Abutilon theophrasti
Source text: as §1, §2

Abutilon theophrasti [5] = assay: whole plant or invertebrate
Source text: as §1, §2

Aeschynomene indica [6] = assay: whole plant or invertebrate
Source text: as §1, §2

Xanthium spinosum = assay: whole plant or invertebrate
Source text: as §1, §2

Echinochloa crus [7] = assay: Dry field farming herbicidal composition test, plant mortality; format: in vivo; conditions: Echinochloa, read-out: Echinochloa crus mortality, measured value
Source text: as §1, §2

Digitaria sanguinalis [8] = assay: as above; format: in vivo; conditions: Digitaria sanguinalis, read-out: Digitaria sanguinalis mortality, measured value
Source text: as §1, §2

Abutilon theophrasti [9] = assay: as above; format: in vivo; conditions: Abutilon theophrasti, read-out: Abutilon theophrasti mortality, measured value
Source text: as §1, §2

Aeschynomene indica [10] = assay: as above; format: in vivo; conditions: Aeschynomene indica, read-out: Aeschynomene indica mortality, measured value
Source text: as §1, §2

[11] = Pontederia vaginalis, read-out: Monochoria vaginalis mortality (measured value)
[12] = Echinochloa, read-out: Echinochloa crus mortality, measured value
[13] = read-out: plant mortality, measured value, 20 g/ha
[14] = read-out: plant mortality, measured value, 40 g/ha
[15] = read-out: plant mortality, measured value, 80 g/ha

## CCN(CC)C(=O)n1cnc(S(=O)(=O)c2c(C)cc(C)cc2C)n1 [Cafenstrole]
Monochoria vaginalis; [11]
  pest or weed control at 50 g/ha: 30%
Echinochloa crus [1]; [12]
  pest or weed control at 50 g/ha: 20%

## CCN(C(=O)SCc1ccccc1)C(C)C(C)C (stereo not shown) [Esprocarb]
Monochoria vaginalis; [11]
  pest or weed control at 500 g/ha: 30%
Echinochloa crus [1]; [12]
  pest or weed control at 500 g/ha: 20%

## CC1=C(c2ccccc2)C(=O)N(C(C)(C)c2cc(Cl)cc(Cl)c2)CO1 [Oxaziclomefone]
Monochoria vaginalis; Pontederia vaginalis, 12.5 g/ha, read-out: Monochoria vaginalis mortality (measured value)
  pest or weed control at 12.5 g/ha: 0%
Echinochloa crus [1]; Echinochloa, 12.5 g/ha, read-out: Echinochloa crus mortality (measured value)
  pest or weed control at 12.5 g/ha: 30%

## CS(=O)(=O)c1ccc(C(=O)C2=C(Sc3ccccc3)C3CCC(C3)C2=O)c(Cl)c1 (stereo not shown) [Benzobicyclon]
Monochoria vaginalis; 50 g/ha
  Monochoria vaginalis mortality (measured value): 30
Echinochloa crus [1]; 50 g/ha
  Echinochloa crus mortality, measured value: 0

## C=CCOC(=O)C(C)(C)OC(=O)c1cc(-n2c(=O)cc(C(F)(F)F)n(C)c2=O)ccc1Cl [Butafenacil]
Echinochloa crus [2]; 4 g/ha
  plant mortality, measured value: 0
Echinochloa crus [2]; 8 g/ha
  plant mortality, measured value: 0
Echinochloa crus [2]; 20 g/ha
  plant mortality, measured value: 12
Echinochloa crus [2]; 40 g/ha
  plant mortality, measured value: 30
Echinochloa crus [2]; 80 g/ha
  plant mortality, measured value: 53
Digitaria sanguinalis [3]; 4 g/ha
  plant mortality, measured value: 0
Digitaria sanguinalis [3]; 20 g/ha
  plant mortality, measured value: 12
Digitaria sanguinalis [3]; 40 g/ha
  plant mortality, measured value: 40
Digitaria sanguinalis [3]; 80 g/ha
  plant mortality, measured value: 70
Abutilon theophrasti [4]
  plant mortality, measured value: 55
Abutilon theophrasti [5]; [13]
  pest or weed control at 20 g/ha: 55%
Abutilon theophrasti [5]; [14]
  pest or weed control at 40 g/ha: 94%
Abutilon theophrasti [5]; [15]
  pest or weed control at 80 g/ha: 100%
Aeschynomene indica [6]; read-out: plant mortality, measured value, 8 g/ha
  pest or weed control at 8 g/ha: 45%
Aeschynomene indica [6]; [13]
  pest or weed control at 20 g/ha: 51%
Aeschynomene indica [6]; [14]
  pest or weed control at 40 g/ha: 99%
Aeschynomene indica [6]; [15]
  pest or weed control at 80 g/ha: 100%
Xanthium spinosum; read-out: plant mortality, measured value, 4 g/ha
  pest or weed control at 4 g/ha: 15%
Xanthium spinosum; read-out: plant mortality, measured value, 16 g/ha
  pest or weed control at 16 g/ha: 54%
Xanthium spinosum; [13]
  pest or weed control at 20 g/ha: 42%
Xanthium spinosum; [14]
  pest or weed control at 40 g/ha: 90%
Xanthium spinosum; [15]
  pest or weed control at 80 g/ha: 100%

## NC1=C(Cl)C(=O)c2ccccc2C1=O [Quinoclamine]
Monochoria vaginalis; 450 g/ha
  Monochoria vaginalis mortality (measured value): 0
Echinochloa crus [1]; 450 g/ha
  Echinochloa crus mortality, measured value: 0

## CC(C)N(C(=O)COc1nnc(C(F)(F)F)s1)c1ccc(F)cc1 [Flufenacet]
Echinochloa crus [7]
  pest or weed control at 87.5 g/ha: 7%
  pest or weed control at 175 g/ha: 24%
  pest or weed control at 350 g/ha: 50%
Digitaria sanguinalis [8]
  pest or weed control at 87.5 g/ha: 7%
  pest or weed control at 175 g/ha: 22%
  pest or weed control at 350 g/ha: 53%
Abutilon theophrasti [9]
  pest or weed control at 87.5 g/ha: 9%
  pest or weed control at 175 g/ha: 23%
  pest or weed control at 350 g/ha: 46%
Aeschynomene indica [10]
  pest or weed control at 87.5 g/ha: 6%
  pest or weed control at 175 g/ha: 18%
  pest or weed control at 350 g/ha: 46%
corn; 87.5 g/ha
  Corn mortality, measured value: 0
corn; 175 g/ha
  Corn mortality, measured value: 0
corn; 350 g/ha
  Corn mortality, measured value: 1

## CC(C)(NC(=O)C(Br)C(C)(C)C)c1ccccc1 (stereo not shown) [Bromobutide]
Monochoria vaginalis; Pontederia vaginalis, 225 g/ha, read-out: Monochoria vaginalis mortality (measured value)
  pest or weed control at 225 g/ha: 50%
Echinochloa crus [1]; Echinochloa, 225 g/ha, read-out: Echinochloa crus mortality (measured value)
  pest or weed control at 225 g/ha: 0%
